Data as given in US10889564B2, “Tetrahydroindazoles and medical uses thereof” (Genase Therapeutics B.V., priority 2015, dated 2021).

What was measured:
[1] = target: T1, human dihydroorotate dehydrogenase (DHODH) (Homo sapiens (Human), UniProt Q02127); test: DHODH enzyme assay, Assay B (DCIP absorbance, 384 well); type: biochemical; conditions: 4 nM recombinant human DHODH
Protocol: (§1) Inhibition of human dihydroorotate dehydrogenase (DHODH) by example compounds as described herein was determined using one of two assays as described below.
Example compounds as described herein were dispensed with an acoustic liquid handler, Echo 550 (Labcyte) to a maximum volume of 50 nl per well in a 384 well plate. DHODH enzyme assays were performed with 4 nM recombinant human DHODH (purified essentially as described by Walse et. al., Biochemistry, 47, 8929-8936 (2008)). The reaction mixture consisted of 2 mM DL-dihydroorotic acid (#D7003, Sigma-Aldrich), 100 μM 3,4-dimethoxy-5-methyl-p-benzoquinone (#D9150, Sigma-Aldrich), and 200 μM 2,6-dichlorophenolindophenol sodium salt (DCIP) (#D1878, Sigma-Aldrich) in enzyme buffer (50 mM Tris-HCl pH 8.0, 0.1% Triton X-100, 150 mM KCl) in a final volume of 50 μl per well. A stock solution of 80 mM DCIP was prepared in DMSO just before use. Loss in absorbance by chromogen DCIP was measured at 595 nm at RT every 2 min for an hour with a plate reader (Envision, Perkin Elmer).

ARN8 melanoma cells = test: Sulforhodamine B assay of cancer cell growth and/or viability; type: cell-based; conditions: 72 hours; for viability at 2 µM: ARN8
Protocol: ARN8 melanoma cells are seeded at a density of 500 cells per well of a 96 well plate. Following 24 hours of incubation, cells are treated with increasing concentrations of the compound of Example 8 in the absence or presence of excess uridine (100 micromolar). Cells are incubated for 72 hours after which the growth medium is removed from the cells and replaced by […] of 1× sterile PBS and 50 μL of 40% trichloroacetic acid in dH2O. Samples are incubated at 4° C. for 1 h to fix the cells. The plate is then washed with 3 changes of water with all liquid allowed to drain from the plate. […] of 0.1% sulforhodamine B in 1% acetic acid in H2O is added to each well and incubated for 30 minutes. Excess dye is washed out with three changes of 1% acetic acid in H2O with all liquid allowed to drain from the plate. The remaining dye is solubilized in 100 microliters of 10 mM un-buffered basic Tris per well and absorbance read at 570 nm.

[2] = target: T1, human dihydroorotate dehydrogenase (DHODH); test: DHODH enzyme assay, Assay A (DCIP absorbance); type: biochemical; conditions: 6 nM recombinant human DHODH
Protocol: as §1
DHODH enzyme assays were performed with 6 nM recombinant human DHODH (purified essentially as described by Walse et. al., Biochemistry, 47, 8929-8936 (2008)). The reaction mixture consisted of 1 mM DL-dihydroorotic acid (#D7003, Sigma-Aldrich), 100 μM 3,4-dimethoxy-5-methyl-p-benzoquinone (#D9150, Sigma-Aldrich), and 100 μM 2,6-dichlorophenolindophenol sodium salt (DCIP) (#D1878, Sigma-Aldrich) in enzyme buffer (50 mM Tris-HCl pH 8.0, 0.1% Triton X-100, 150 mM KCl). A stock solution of 20 mM DCIP was prepared in enzyme buffer and filtered through Whatman paper just before use. Loss in absorbance by chromogen DCIP was measured at 595 nm at RT every 3 min for an hour.

T1 sequence (Q02127 29-395): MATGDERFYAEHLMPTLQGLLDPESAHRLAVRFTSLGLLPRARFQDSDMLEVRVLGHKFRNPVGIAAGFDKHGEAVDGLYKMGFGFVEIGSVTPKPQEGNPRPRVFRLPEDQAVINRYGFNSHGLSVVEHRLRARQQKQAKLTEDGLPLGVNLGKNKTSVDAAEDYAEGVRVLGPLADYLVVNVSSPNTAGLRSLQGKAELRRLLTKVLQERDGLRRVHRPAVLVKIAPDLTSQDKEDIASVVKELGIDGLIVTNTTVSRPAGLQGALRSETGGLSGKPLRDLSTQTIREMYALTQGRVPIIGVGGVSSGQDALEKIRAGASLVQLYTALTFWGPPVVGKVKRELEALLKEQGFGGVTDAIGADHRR

Structure (SMILES) | IC50 [1] [µM] | viability at 2 µM (ARN8 melanoma cells; absence of excess uridine) [%] | other results
Cc1cnc(C(=O)N[C@@H]2CCCc3c2cnn3-c2ccccc2F)cn1 (single isomer, unassigned) [Example 15, N-[(4R*)-1-(2-fluorophenyl)-4,5,6,7-tetrahydro-1H-indazol-4-yl]-5-methylpyrazine-2-carboxamide] | 0.735 |  | 
O=C(N[C@H]1CCCc2c1cnn2-c1ccccc1F)c1ccccn1 [Example 2, (S)—N-(1-(2-Fluorophenyl)-4,5,6,7-tetrahydro-1H-indazol-4-yl)picolinamide] |  | 100 | 
O=C(N[C@@H]1CCCc2c1cnn2-c1ccccc1F)c1ccccn1 [Example 3, (R)—N-(1-(2-fluorophenyl)-4,5,6,7-tetrahydro-1H-indazol-4-yl)picolinamide] |  | 30 | 
O=C(NC1CCCc2c1cnn2-c1ccccc1F)c1cscn1 (stereo not drawn) [Example 4, N-[1-(2-fluorophenyl)-4,5,6,7-tetrahydro-1H-indazol-4-yl]-1,3-thiazole-4-carboxamide] |  | 52 | IC50 [2]: 1.11 µM
O=C(NC1CCCc2c1cnn2-c1ccc(F)cc1F)c1onc2c1CCCC2 (stereo not drawn) [Example 5, N-(1-(2,4-difluorophenyl)-4,5,6,7-tetrahydro-1H-indazol-4-yl)-4,5,6,7-tetrahydrobenzo[c]isoxazole-3-carboxamide] |  | 22 | IC50 [2]: 0.29 µM
Cc1cc(C(=O)NC2CCCc3c2cnn3-c2ccc(C)c(C)c2)no1 (stereo not drawn) [Example 6, N-[1-(3,4-dimethylphenyl)-4,5,6,7-tetrahydro-1H-indazol-4-yl]-5-methyl-3-isoxazolecarboxamide] |  | 105 | IC50 [2]: 5.83 µM
COC(=O)c1ccc(C(=O)NC2CCCc3c2cnn3-c2ccccc2F)nc1 (stereo not drawn) [Example 7, Methyl 6-({[1-(2-fluorophenyl)-4,5,6,7-tetrahydro-1H-indazol-4-yl]amino}carbonyl)nicotinate] |  | 28 | IC50 [2]: > 10 µM
O=C(NC1CCCc2c1cnn2-c1ccccc1F)c1onc2c1CCCC2 (stereo not drawn) [Example 8, N-(1-(2-fluorophenyl)-4,5,6,7-tetrahydro-1H-indazol-4-yl)-4,5,6,7-tetrahydrobenzo[c]isoxazole-3-carboxamide] |  | 48 | IC50 [2]: 0.032 µM; ARN8 melanoma cell growth and/or viability (ARN8 melanoma cells; absence of excess uridine, FIG. 2): reduces ARN8 melanoma cell growth and/or viability; effect on ARN8 melanoma cell growth and/or viability with excess uridine (ARN8 melanoma cells; excess uridine (100 micromolar), FIG. 2): largely prevented by the addition of excess uridine
COC(=O)c1ccc(C(=O)NC2CCCc3c2cnn3-c2cc(F)cc(F)c2)nc1 (stereo not drawn) [Example 9, Methyl 6-({[1-(3,5-difluorophenyl)-4,5,6,7-tetrahydro-1H-indazol-4-yl]amino}carbonyl)nicotinate] |  | 8 | IC50 [2]: > 10 µM
CCc1cc(C(=O)NC2CCCc3c2cnn3-c2ccc(F)cc2F)no1 (stereo not drawn) [Example 10, N-[1-(2,4-difluorophenyl)-4,5,6,7-tetrahydro-1H-indazol-4-yl]-5-ethyl-3-isoxazolecarboxamide] |  | 92 | IC50 [2]: 2.44 µM
CSc1nc(C(=O)NC2CCCc3c2cnn3-c2ccc(F)cc2F)cs1 (stereo not drawn) [Example 11, N-[1-(2,4-difluorophenyl)-4,5,6,7-tetrahydro-1H-indazol-4-yl]-2-(methylthio)-1,3-thiazole-4-carboxamide] |  | 93 | IC50 [2]: 8.2 µM
O=C(N[C@@H]1CCCc2c1cnn2-c1ccccc1F)c1onc2c1CCCC2 [Example 14, N-[(4R)-1-(2-fluorophenyl)-4,5,6,7-tetrahydro-1H-indazol-4-yl]-4,5,6,7-tetrahydro-2,1-benzoxazole-3-carboxamide] | 0.009 |  | 
Cc1ccccc1-n1ncc2c1CCC[C@H]2NC(=O)c1cc2ccccc2o1 [Example 17, N-[(4R)-1-(2-methylphenyl)-4,5,6,7-tetrahydro-1H-indazol-4-yl]-1-benzofuran-2-carboxamide] | 0.124 |  | 
Cc1ccccc1-n1ncc2c1CCC[C@H]2NC(=O)c1oc2ccccc2c1C [Example 18, 3-methyl-N-[(4R)-1-(2-methylphenyl)-4,5,6,7-tetrahydro-1H-indazol-4-yl]-1-benzofuran-2-carboxamide] | 0.459 |  | 
Cc1ccccc1-n1ncc2c1CCC[C@H]2NC(=O)c1sccc1C [Example 19, 3-methyl-N-[(4R)-1-(2-methylphenyl)-4,5,6,7-tetrahydro-1H-indazol-4-yl]thiophene-2-carboxamide] | 0.136 |  | 
Cc1ccccc1-n1ncc2c1CCC[C@H]2NC(=O)c1ccccn1 [Example 20, N-[(4R)-1-(2-methylphenyl)-4,5,6,7-tetrahydro-1H-indazol-4-yl]pyridine-2-carboxamide] | 0.355 |  | 
Cc1ccccc1-n1ncc2c1CCC[C@H]2NC(=O)c1cccnc1O [Example 21, 2-hydroxy-N-[(4R)-1-(2-methylphenyl)-4,5,6,7-tetrahydro-1H-indazol-4-yl]pyridine-3-carboxamide] | 0.881 |  | 
Cc1ccc(C(=O)N[C@@H]2CCCc3c2cnn3-c2ccccc2C)nc1 [Example 24, 5-methyl-N-[(4R)-1-(2-methylphenyl)-4,5,6,7-tetrahydro-1H-indazol-4-yl]pyridine-2-carboxamide] | 0.066 |  | 
Cc1ccccc1-n1ncc2c1CCC[C@H]2NC(=O)c1ncccc1C [Example 26, 3-methyl-N-[(4R)-1-(2-methylphenyl)-4,5,6,7-tetrahydro-1H-indazol-4-yl]pyridine-2-carboxamide] | 0.096 |  | 
O=C(N[C@@H]1CCCc2c1cnn2-c1ccccc1F)c1noc2ccccc12 [Example 28, N-[(4R)-1-(2-fluorophenyl)-4,5,6,7-tetrahydro-1H-indazol-4-yl]-1,2-benzoxazole-3-carboxamide] | 0.018 |  | 
O=C(N[C@@H]1CCCc2c1cnn2-c1ccccc1F)c1nc2ccccc2o1 [Example 33, N-[(4R)-1-(2-fluorophenyl)-4,5,6,7-tetrahydro-1H-indazol-4-yl]-1,3-benzoxazole-2-carboxamide] | 0.088 |  | 
O=C(N[C@@H]1CCCc2c1cnn2-c1ccccc1F)c1cc2ccccc2[nH]1 [Example 35, N-[(4R)-1-(2-fluorophenyl)-4,5,6,7-tetrahydro-1H-indazol-4-yl]-1H-indole-2-carboxamide] | 2.67 |  | 
COc1cc(C(=O)N[C@@H]2CCCc3c2cnn3-c2ccccc2F)nc2ccccc12 [Example 38, (R)—N-(1-(2-fluorophenyl)-4,5,6,7-tetrahydro-1H-indazol-4-yl)-4-methoxyquinoline-2-carboxamide] | 2.08 |  | 
O=C(N[C@@H]1CCCc2c1cnn2-c1ccccc1F)c1ccc(C(F)(F)F)cn1 [Example 40, N-[(4R)-1-(2-fluorophenyl)-4,5,6,7-tetrahydro-1H-indazol-4-yl]-5-(trifluoromethyl)pyridine-2-carboxamide] | 2 |  | 
Cc1ccnc(C(=O)NC2CCCc3c2cnn3-c2ccccc2)c1 (stereo not drawn) [Example 43, 4-methyl-N-(1-phenyl-4,5,6,7-tetrahydro-1H-indazol-4-yl)pyridine-2-carboxamide] | 0.441 |  | 
Cc1cccc(C(=O)N[C@@H]2CCCc3c2cnn3-c2ccccc2C)n1 [Example 45, 6-methyl-N-[(4R)-1-(2-methylphenyl)-4,5,6,7-tetrahydro-1H-indazol-4-yl]pyridine-2-carboxamide] | > 3 |  | 
O=C(N[C@@H]1CCCc2c1cnn2-c1ccccc1F)c1ncn2c1CCCC2 [Example 46, (R)—N-(1-(2-fluorophenyl)-4,5,6,7-tetrahydro-1H-indazol-4-yl)-5,6,7,8-tetrahydroimidazo[1,5-a]pyridine-1-carboxamide] | 0.006 |  | 
CC(C)OC(=O)c1cccc(-n2ncc3c2CCC[C@H]3NC(=O)c2noc3c2CCCC3)c1 [Example 52, Propan-2-yl-3-[(4R)-4-(4,5,6,7-tetrahydro-1,2-benzoxazole-3-amido)-4,5,6,7-tetrahydro-1H-indazol-1-yl]benzoate] | 0.011 |  | 
O=C(N[C@@H]1CCCc2c1cnn2-c1cccc(C(=O)N2CCOCC2)c1)c1noc2c1CCCC2 [Example 53, N-[(4R)-1-[3-(morpholine-4-carbonyl)phenyl]-4,5,6,7-tetrahydro-4H-indazol-4-yl]-4,5,6,7-tetrahydro-1,2-benzoxazole-3-carboxamide] | 0.22 |  | 
